Experimental data from paper PMC5274652, “Antagonizing Retinoic Acid Receptors Increases Myeloid Cell Production by Cultured Human Hematopoietic Stem Cells” (Archivum Immunologiae et Therapiae Experimentalis, 2016).
One block for each molecule: values may come before it.

Experiments:
NB-4 cells = experiment: Differentiation of NB-4 cells (CD11b/CD14 flow cytometry); format: cell-based, human; conditions: 96 h
Protocol: (§1) NB-4 and KG1 cells were obtained from the German Resource Center for Biological Material (DSMZ GmbH, Braunschweig, Germany). The cells were grown in RPMI-1640 medium supplemented with 10 % fetal bovine serum (FBS), 100 U/ml penicillin, and 100 µg/ml streptomycin (Sigma, St Louis, MO, USA). Cells were grown at 37 °C in 5 % CO2.
(§2) The expression of differentiation markers at the cell surface was determined by flow cytometry. Differentiation of NB-4 and KG1 cells was measured by staining using the monoclonal antibodies CD11b-FITC and CD14-PE and appropriately labeled isotype controls (all from ImmunoTools, Friesoythe, Germany). Differentiation of human CD34^+ve cells was measured by triple-color staining using various cocktails of phycoerythrin-, fluorescein isothyocyanate-, and PerCP-monoclonal antibodies (from Becton–Dickinson, San Jose, CA, USA). The markers used to identify cell populations were as follows: CD45^+ve leukocytes; CD34^+ve/CD133^+ve HSCs; CD33^+ve/CD13^+ve immature myeloid; CD117^+ve myeloblasts and promyelocytes; CD11b^+ve/CD15^+ve mature myeloid; CD11b^+ve/CD65^+ve neutrophils; CD11b^+ve/CD14^+ve monocytes; glycophorin^+ve A erythroid cells; CD61^+ve megakaryoblasts and platelets; CD2^+ve/CD5^+ve/CD7^+ve T cells and NK cells; CD56^+ve NK cells; CD19^+ve/CD20^+ve B cells; and CD10^+ve B lymphocyte progenitors; and present on mature neutrophils and DR^+ve progenitors and present on mature monocytes. The cells were stained with 1 µl of the fluorescently labeled antibody (or the appropriate control immunoglobulin) for 1 h on ice. Next, they were washed with ice-cold phosphate-buffered saline (PBS) and suspended in 0.5 ml PBS supplemented with 0.1 % bovine serum albumin (Sigma, St Louis, MO, USA) prior to analysis on FACS Calibur flow cytometer (Becton–Dickinson, San Jose, CA, USA). The acquisition parameters were set for an isotype control. Cells were analyzed using a FACSCalibur, and data analysis was performed using the CellQuest Pro software (Becton–Dickinson, San Jose, CA, USA).

human RARγ = target: T1, human RARγ (Homo sapiens, UniProt P13631); experiment: Competition with [3H]-ATRA binding, nuclear extracts of Sf21 cells expressing RARγ; conditions: nuclear extracts of baculovirus-infected Sf21 cells
T1 construct: made in house
T1 sequence (P13631 1-454): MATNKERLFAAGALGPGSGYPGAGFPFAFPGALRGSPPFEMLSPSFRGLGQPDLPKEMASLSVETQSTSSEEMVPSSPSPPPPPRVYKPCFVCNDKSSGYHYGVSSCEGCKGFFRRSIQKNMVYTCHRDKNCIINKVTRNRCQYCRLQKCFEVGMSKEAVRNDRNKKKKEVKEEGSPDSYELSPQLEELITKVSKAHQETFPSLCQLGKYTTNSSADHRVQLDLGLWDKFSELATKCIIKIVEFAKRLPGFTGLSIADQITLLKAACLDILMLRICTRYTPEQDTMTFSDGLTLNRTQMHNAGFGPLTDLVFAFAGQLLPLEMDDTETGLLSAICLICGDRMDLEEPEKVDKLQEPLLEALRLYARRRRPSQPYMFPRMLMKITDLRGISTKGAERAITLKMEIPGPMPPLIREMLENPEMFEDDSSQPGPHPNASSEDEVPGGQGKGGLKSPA

human RARα = target: T2, human RARα (Homo sapiens, UniProt P10276); experiment: Competition with [3H]-ATRA binding, nuclear extracts of Sf21 cells expressing RARα; conditions: nuclear extracts of baculovirus-infected Sf21 cells, read-out: Binding affinity ED50, RARα
T2 construct: made in house
T2 sequence (P10276 1-462): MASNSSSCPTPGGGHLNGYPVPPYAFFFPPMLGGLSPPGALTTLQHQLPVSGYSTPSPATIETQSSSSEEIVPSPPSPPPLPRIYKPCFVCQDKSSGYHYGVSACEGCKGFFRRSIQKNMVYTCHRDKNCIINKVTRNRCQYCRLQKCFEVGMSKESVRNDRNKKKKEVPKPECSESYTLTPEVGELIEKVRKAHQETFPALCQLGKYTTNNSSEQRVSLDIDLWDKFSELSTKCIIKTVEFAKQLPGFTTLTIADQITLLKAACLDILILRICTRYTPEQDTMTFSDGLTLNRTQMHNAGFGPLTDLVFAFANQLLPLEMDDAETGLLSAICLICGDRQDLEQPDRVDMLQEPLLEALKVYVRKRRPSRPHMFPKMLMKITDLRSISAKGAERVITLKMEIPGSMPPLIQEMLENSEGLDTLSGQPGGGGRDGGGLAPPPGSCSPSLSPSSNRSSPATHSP

KG1 cells = experiment: Differentiation of KG1 cells (CD11b/CD14 flow cytometry); format: cell-based, human; conditions: 96 h
Protocol: as §1, §2

human RARβ = target: T3, human RARβ (Homo sapiens, UniProt P10826); experiment: Competition with [3H]-ATRA binding, nuclear extracts of Sf21 cells expressing RARβ; conditions: nuclear extracts of baculovirus-infected Sf21 cells, read-out: Binding affinity ED50, RARβ
T3 construct: made in house
T3 sequence (P10826 1-455): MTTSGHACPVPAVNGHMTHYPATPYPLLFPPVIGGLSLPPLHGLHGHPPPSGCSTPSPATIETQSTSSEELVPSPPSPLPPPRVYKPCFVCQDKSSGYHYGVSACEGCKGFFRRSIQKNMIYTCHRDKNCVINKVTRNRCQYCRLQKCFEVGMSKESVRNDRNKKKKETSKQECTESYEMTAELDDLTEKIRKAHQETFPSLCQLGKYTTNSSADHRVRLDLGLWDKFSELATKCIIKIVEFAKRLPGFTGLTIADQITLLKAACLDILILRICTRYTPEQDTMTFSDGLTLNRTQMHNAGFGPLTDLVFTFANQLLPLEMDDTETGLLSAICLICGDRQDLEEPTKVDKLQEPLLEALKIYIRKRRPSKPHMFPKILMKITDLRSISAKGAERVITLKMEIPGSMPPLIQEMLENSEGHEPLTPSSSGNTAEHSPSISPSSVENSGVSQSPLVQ

CD34^+vehuHSC = experiment: Cell production and lifespan of CD34+ve huHSC-initiated cultures; format: cell-based, human
From the text: (§3) The cells used were CD34^+ve cells purified from the blood of normal human adult donors and post-mobilization of stem cells to the blood. Cells obtained and purified in this manner are used routinely by the National Blood Service Stem Cell Laboratory in Birmingham for bone marrow transplantation. Ethics approval for the use of adult human blood-mobilized stem cells (CD34^+vehuHSC) was from the West Midlands Research Ethics Committee. Informed consent was obtained by the regional National Blood Service Stem Cell Laboratory in Birmingham. CD34^+ve cells were purified to 99 % CD34^+ve, 97 % CD133^+ve, >99 % lineage^−ve (n = 15) using an anti-CD34 monoclonal antibody, immunomagnetic beads, and a CliniMACS magnetic separator. Purified cells were plated at 5 × 10^5 cells/ml in microtiter wells in 200 μl of either RPMI-1640 medium (R and D Systems, Abingdon, UK) or HPGM^TM hematopoietic growth medium (Lonza, UK) containing either 10 % FBS or 10 % human serum, antibiotics (100 U/ml penicillin and 100 μg/ml streptomycin) and stem cell factor (SCF), interleukin (IL)-3, and granulocyte-colony stimulating factor (G-CSF) (all from R and D Systems Abingdon, UK) as stated in the results. Cultures were fed every 2–3 days (with fresh compound), split into microtiter wells, and then expanded into 2 ml Costar wells to maintain a cell density of between 2.5 and 10 × 10^5 cells/ml. Cells were grown at 37 °C in 5 % CO2. Viable cells were enumerated by phase contrast microscopy (400× magnification).
as §2

[1] = tested on: lineage^−ve/CD133^+ve/CD34^+vehuHSC; experiment: Ex vivo expansion of lineage-ve/CD133+ve/CD34+ve huHSC; format: cell-based, human; conditions: all 15 donors; control 8–10-fold
From the text: as §3, with “Viable cells were enumerated by phase contrast microscopy (400× magnification).” left out
The expression of differentiation markers at the cell surface was determined by flow cytometry. Differentiation of NB-4 and KG1 cells was measured by staining using the monoclonal antibodies CD11b-FITC and CD14-PE and appropriately labeled isotype controls (all from ImmunoTools, Friesoythe, Germany). Differentiation of human CD34^+ve cells was measured by triple-color staining using various cocktails of phycoerythrin-, fluorescein isothyocyanate-, and PerCP-monoclonal antibodies (from Becton–Dickinson, San Jose, CA, USA). […] Cells were analyzed using a FACSCalibur, and data analysis was performed using the CellQuest Pro software (Becton–Dickinson, San Jose, CA, USA).

Molecule: C=C1/C(=C\C=C2/CCC[C@]3(C)[C@@H]([C@H](C)CCCC(C)(C)O)CC[C@@H]23)C[C@@H](O)C[C@@H]1O [1,25D, 1α,25-Dihydroxyvitamin D3]
CD11b+ve/CD14+ve cells (monocyte differentiation) (NB-4 cells; NB-4 cells, 10 nM, alone): ~ 6%

B1: granulocyte-colony stimulating factor (protein, UniProt P09919 31-207, looked up)
Granulocyte …: TPLGPASSLPQSFLLKCLEQVRKIQGDGAALQEKLVSECATYKLCHPEELVLLGHSLGIPWAPLSSCPSQALQLAGCLSQLHSGLFLYQGLLQALEGISPELGPTLDTLQLDVADFATTIWQQMEELGMAPALQPTQGAMPAFASAFQRRAGGVLVASHLQSFLEVSYRVLRHLAQP
notes: growth factor added at 30 ng/ml as benchmark for optimal generation of myeloid cells
cells produced versus control cultures (CD34^+vehuHSC; 30 ng/ml, by day 30): fourfold more cells
time for which cultures were maintained (CD34^+vehuHSC; 30 ng/ml, 10 % FBS, 100 ng/ml SCF, 5 ng/ml IL-3): ≤ 55 days

Further lines, with some results ahead:

IC50 (human RARγ; read-out: Binding affinity ED50, RARγ): > 5000 nM
IC50 (human RARα): 20.1 nM
IC50 (human RARβ): > 5000 nM
Molecule: CC1(C)CCC(C)(C)c2c1cc(C(=O)Nc1cc(F)c(C(=O)O)c(F)c1)c(O)c2Cl [AGN195183]
CD11b+ve/CD14+ve cells (monocyte differentiation) (NB-4 cells; NB-4 cells, 100 nM combined with 10 nM 1,25D): 40%
CD11b+ve/CD14−ve cells (neutrophil differentiation) (NB-4 cells; NB-4 cells, 100 nM, alone): 40%
CD11b+ve/CD14+ve cells (monocyte differentiation) (KG1 cells; KG1 cells, 100 nM combined with 10 nM 1,25D): 18%

Binding affinity ED50, RARγ (human RARγ): >10,000 nM
IC50 (human RARα): 3.9 nM
IC50 (human RARβ): 4036 nM
Molecule: CCOc1c(Br)cc(C(=O)Nc2ccc(C(=O)O)cc2)cc1C(=O)c1ccc(C)cc1 [AGN196996]
effect on differentiation of NB-4 cells (NB-4 cells; 100 nM with 10 nM 1,25D, compared with 1,25D alone): did not have an appreciable effect
effect on differentiation of NB-4 cells (NB-4 cells; 100 nM, used alone): no effect
cells (largely myeloid) produced versus γ antagonist-treated and control cultures (CD34^+vehuHSC; by day 20): around fourfold more cells
prolonged lifespan of cultures (CD34^+vehuHSC; human HSCs supplemented with stem cell factor ± interleukin 3, abstract): up to 55 days
effect on differentiation of KG1 cells (KG1 cells; 100 nM together with 10 nM 1,25D): no effect
effect on differentiation of KG1 cells (KG1 cells; 100 nM, used alone): no effect
expansion of lineage−ve/CD133+ve/CD34+ve cells [1]: around 20 fold
